Results published in PubChem BioAssay AID256 (DTP/NCI, 2004).
Where “and” joins values, the source holds several entries; their conditions need not be identical. Equal entries are not always repeated. Toxic doses and inconclusive results are not listed.

Test system: CD2F1 mice, L1210 leukemia ip, survival T/C
Experiment: NCI In Vivo Anticancer Drug Screen. Data for tumor model L1210 Leukemia (intraperitoneal) in CD2F1 (CDF1) mice
Settings: higher = longer survival
How it was run: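 Activity against a transplanted murine tumor was judged by comparing the compound group with a vehicle group. The outcome in the treated animals was divided by that in the controls.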

[1] = endpoint: mean survival time, dose: 12.5 mg/kg/injection, schedule: Q01DX005 (ip), vehicle: distilled water + Tween-80
[2] = endpoint: mean survival time, dose: 25.0 mg/kg/injection, schedule: Q01DX005 (ip), vehicle: distilled water + Tween-80
[3] = endpoint: mean survival time, dose: 50.0 mg/kg/injection, schedule: Q01DX005 (ip), vehicle: distilled water + Tween-80
[4] = endpoint: mean survival time, dose: 200.0 mg/kg/injection, schedule: Q01DX005 (ip), vehicle: distilled water + Tween-80
[5] = endpoint: mean survival time, dose: 25.0 mg/kg/injection, schedule: Q04DX003 (ip), vehicle: saline with Tween-80
[6] = endpoint: mean survival time, dose: 100.0 mg/kg/injection, schedule: Q04DX003 (ip), vehicle: saline with Tween-80
[7] = endpoint: mean survival time, dose: 100.0 mg/kg/injection, schedule: Q01DX001 (ip), vehicle: saline
[8] = endpoint: mean survival time, dose: 200.0 mg/kg/injection, schedule: Q01DX001 (ip), vehicle: saline
[9] = endpoint: mean survival time, dose: 400.0 mg/kg/injection, schedule: Q01DX001 (ip), vehicle: saline
[10] = endpoint: mean survival time, dose: 100.0 mg/kg/injection, schedule: Q01DX009 (ip), vehicle: other
[11] = endpoint: mean survival time, dose: 200.0 mg/kg/injection, schedule: Q01DX009 (ip), vehicle: other
[12] = endpoint: mean survival time, dose: 100.0 mg/kg/injection, schedule: Q01DX009 (ip), vehicle: saline with Tween-80
[13] = endpoint: mean survival time, dose: 200.0 mg/kg/injection, schedule: Q01DX009 (ip), vehicle: saline with Tween-80
[14] = endpoint: mean survival time, dose: 400.0 mg/kg/injection, schedule: Q01DX009 (ip), vehicle: saline with Tween-80
[15] = endpoint: mean survival time, dose: 200.0 mg/kg/injection, schedule: Q04DX003 (ip), vehicle: saline with Tween-80
[16] = endpoint: mean survival time, dose: 400.0 mg/kg/injection, schedule: Q04DX003 (ip), vehicle: saline with Tween-80

With CC(O)C1OC(n2cnc3c(=O)[nH]cnc32)C(O)C1O (stereo unspecified) the T/C [1] was 114 % of control, the T/C [2] was 112 % of control and the T/C [3] was 104 % of control. The T/C (endpoint: mean survival time, dose: 100.0 mg/kg/injection, schedule: Q01DX005 (ip), vehicle: distilled water + Tween-80) was 102 % of control, the T/C [4] was 100 % of control and the T/C (endpoint: median survival time, dose: 8.75 mg/kg/injection, schedule: Q01DX005 (ip), vehicle: distilled water + Tween-80) was 108 % of control. The T/C (endpoint: median survival time, dose: 12.5 mg/kg/injection, schedule: Q01DX005 (ip), vehicle: water) was 97 % of control, the T/C (endpoint: median survival time, dose: 17.5 mg/kg/injection, schedule: Q01DX005 (ip), vehicle: distilled water + Tween-80) was 108 % of control and the T/C (endpoint: median survival time, dose: 25.0 mg/kg/injection, schedule: Q01DX005 (ip), vehicle: saline with Tween-80) was 98 % of control. The T/C (endpoint: median survival time, dose: 25.0 mg/kg/injection, schedule: Q01DX005 (ip), vehicle: water) was 97 % of control, the T/C (endpoint: median survival time, dose: 35.0 mg/kg/injection, schedule: Q01DX005 (ip), vehicle: distilled water + Tween-80) was 102 % of control and the T/C (endpoint: median survival time, dose: 50.0 mg/kg/injection, schedule: Q01DX005 (ip), vehicle: saline with Tween-80) was 107 % of control. For the same compound, the T/C (endpoint: median survival time, dose: 50.0 mg/kg/injection, schedule: Q01DX005 (ip), vehicle: water) was 109 % of control, the T/C (endpoint: median survival time, dose: 70.0 mg/kg/injection, schedule: Q01DX005 (ip), vehicle: distilled water + Tween-80) was 97 % of control and the T/C (endpoint: median survival time, dose: 100.0 mg/kg/injection, schedule: Q01DX005 (ip), vehicle: saline with Tween-80) was 98 % of control. For the same compound, the T/C (endpoint: median survival time, dose: 100.0 mg/kg/injection, schedule: Q01DX005 (ip), vehicle: water) was 98 % of control, the T/C (endpoint: median survival time, dose: 140.0 mg/kg/injection, schedule: Q01DX005 (ip), vehicle: distilled water + Tween-80) was 97 % of control and the T/C (endpoint: median survival time, dose: 200.0 mg/kg/injection, schedule: Q01DX005 (ip), vehicle: saline with Tween-80) was 109 % of control. The T/C (endpoint: median survival time, dose: 200.0 mg/kg/injection, schedule: Q01DX005 (ip), vehicle: water) was 102 % of control and the T/C (endpoint: median survival time, dose: 400.0 mg/kg/injection, schedule: Q01DX005 (ip), vehicle: saline with Tween-80) was 101 % of control.
With CNC(Cc1ccccc1)c1ccccc1 (stereo unspecified) the T/C [5] was 91 % of control, the T/C (endpoint: mean survival time, dose: 50.0 mg/kg/injection, schedule: Q04DX003 (ip), vehicle: saline with Tween-80) was 93 % of control and the T/C [6] was 95 % of control and 97 % of control.
With COC1c2cc3ccccc3nc2-c2ccccc2C1(C)C (stereo unspecified) the T/C (endpoint: mean survival time, dose: 12.5 mg/kg/injection, schedule: Q01DX009 (ip), vehicle: water) was 96 % of control, the T/C (endpoint: mean survival time, dose: 25.0 mg/kg/injection, schedule: Q01DX009 (ip), vehicle: water) was 96 % of control and the T/C (endpoint: mean survival time, dose: 50.0 mg/kg/injection, schedule: Q01DX009 (ip), vehicle: water) was 91 % of control. For the same compound, the T/C (endpoint: mean survival time, dose: 100.0 mg/kg/injection, schedule: Q01DX009 (ip), vehicle: water) was 91 % of control and the T/C (endpoint: mean survival time, dose: 200.0 mg/kg/injection, schedule: Q01DX009 (ip), vehicle: water) was 90 % of control.
For COc1cccc2c1CCC13OC(O)CC21CCCC3C#N (stereo unspecified), the T/C [7] was 95 % of control, the T/C [8] was 95 % of control and the T/C [9] was 90 % of control.
For CC(C)OC(=O)Nc1cc(F)ccc1F, the T/C [10] was 97 % of control and the T/C [11] was 94 % of control.
For O=C(CCN1C(=O)c2ccccc2C1=O)c1ccccc1, the T/C (endpoint: mean survival time, dose: 100.0 mg/kg/injection, schedule: Q04DX002 (ip), vehicle: saline with Tween-80) was 95 % of control, the T/C (endpoint: mean survival time, dose: 200.0 mg/kg/injection, schedule: Q04DX002 (ip), vehicle: saline with Tween-80) was 89 % of control and the T/C (endpoint: mean survival time, dose: 400.0 mg/kg/injection, schedule: Q04DX002 (ip), vehicle: saline with Tween-80) was 92 % of control.
With c1ccc2c(c1)cnc1cc3c(cc12)ncc1ccccc13 the T/C [7] was 98 % of control, the T/C [8] was 106 % of control and the T/C [9] was 116 % of control.
In the case of C=C(c1cn(C(C)=O)c2ccccc12)c1cn(C(C)=O)c2ccccc12, the T/C [12] is reported as 95 % of control, the T/C [13] is reported as 96 % of control and the T/C [14] is reported as 98 % of control.
In the case of CN(C)C=Nc1ccc([N+](=O)[O-])c2ccccc12, the T/C [10] is reported as 105 % of control, the T/C [11] is reported as 103 % of control and the T/C (endpoint: mean survival time, dose: 400.0 mg/kg/injection, schedule: Q01DX009 (ip), vehicle: other) is reported as 96 % of control.
For CC(C)(C)c1cc(C(C)(C)C)c(C(=O)O)c(C(C)(C)C)c1Cl, the T/C [6] was 101 % of control, the T/C [15] was 97 % of control and the T/C [16] was 100 % of control.
In the case of CC(C)(C)C(=O)/C=C/c1ccccc1, the T/C (endpoint: mean survival time, dose: 50.0 mg/kg/injection, schedule: Q04DX003 (ip), vehicle: Klucel (hydroxypropylcellulose) (HPC)) is reported as 96 % of control, the T/C (endpoint: mean survival time, dose: 100.0 mg/kg/injection, schedule: Q04DX003 (ip), vehicle: Klucel (hydroxypropylcellulose) (HPC)) is reported as 98 % of control and 102 % of control and the T/C (endpoint: mean survival time, dose: 200.0 mg/kg/injection, schedule: Q04DX003 (ip), vehicle: Klucel (hydroxypropylcellulose) (HPC)) is reported as 98 % of control and 110 % of control. The T/C (endpoint: mean survival time, dose: 400.0 mg/kg/injection, schedule: Q04DX003 (ip), vehicle: Klucel (hydroxypropylcellulose) (HPC)) was 106 % of control.
With CCOc1ccc(N=Cc2ccccc2O)cc1 the T/C (endpoint: mean survival time, dose: 100.0 mg/kg/injection, schedule: Q01DX001 (ip), vehicle: saline with Tween-80) was 94 % of control, the T/C (endpoint: mean survival time, dose: 200.0 mg/kg/injection, schedule: Q01DX001 (ip), vehicle: saline with Tween-80) was 94 % of control and the T/C (endpoint: mean survival time, dose: 400.0 mg/kg/injection, schedule: Q01DX001 (ip), vehicle: saline with Tween-80) was 87 % of control.
OCC1CC2c3[nH]c4ccccc4c3CCN2C1 (stereo unspecified) was tested, and the T/C (endpoint: mean survival time, dose: 20.0 mg/kg/injection, schedule: Q01DX001 (ip), vehicle: saline with Tween-80) was 95 % of control, the T/C (endpoint: mean survival time, dose: 40.0 mg/kg/injection, schedule: Q01DX001 (ip), vehicle: saline with Tween-80) was 90 % of control and the T/C (endpoint: mean survival time, dose: 80.0 mg/kg/injection, schedule: Q01DX001 (ip), vehicle: saline with Tween-80) was 93 % of control.
CC(C)(C)SC(=O)C1(C)OC1c1ccc([N+](=O)[O-])cc1 (stereo unspecified) was tested, and the T/C (endpoint: mean survival time, dose: 100.0 mg/kg/injection, schedule: Q01DX001 (ip), vehicle: Klucel (hydroxypropylcellulose) (HPC)) was 97 % of control, the T/C (endpoint: mean survival time, dose: 200.0 mg/kg/injection, schedule: Q01DX001 (ip), vehicle: Klucel (hydroxypropylcellulose) (HPC)) was 94 % of control and the T/C (endpoint: mean survival time, dose: 400.0 mg/kg/injection, schedule: Q01DX001 (ip), vehicle: Klucel (hydroxypropylcellulose) (HPC)) was 97 % of control.
In the case of CC(=O)OC1COC(n2c(=S)n(-c3ccccc3)c(=N)c3ccccc32)C(OC(C)=O)C1OC(C)=O (stereo unspecified), the T/C [1] is reported as 90 % of control, the T/C [2] is reported as 87 % of control and the T/C [3] is reported as 93 % of control. The T/C [4] was 92 % of control.
CN(CC1CCCC1)C1CCCCC1 was tested, and the T/C [7] was 98 % of control.
With Nc1ncnc(N)c1NC(=O)c1ccc(Cl)c([N+](=O)[O-])c1 the T/C [6] was 94 % of control, the T/C [15] was 93 % of control and the T/C [16] was 88 % of control.
With CC(C)(C[NH-])C[NH-].[Cl][Pt+2]([Cl])([Cl])[Cl] the T/C (endpoint: median survival time, dose: 0.2 mg/kg/injection, schedule: Q04DX003 (ip), vehicle: water) was 116 % of control and 111 % of control, the T/C (endpoint: median survival time, dose: 0.4 mg/kg/injection, schedule: Q04DX003 (ip), vehicle: water) was 116 % of control and 124 % of control and the T/C (endpoint: median survival time, dose: 1.6 mg/kg/injection, schedule: Q04DX003 (ip), vehicle: water) was 151 % of control and 186 % of control and 228 % of control. The T/C (endpoint: median survival time, dose: 3.12 mg/kg/injection, schedule: Q04DX003 (ip), vehicle: distilled water + Tween-80) was 123 % of control.
With C=COCCN1CCN(CCCN2c3ccccc3Sc3ccc(C(F)(F)F)cc32)CC1 the T/C (endpoint: mean survival time, dose: 12.5 mg/kg/injection, schedule: Q04DX003 (ip), vehicle: saline with Tween-80) was 113 % of control and the T/C [5] was 113 % of control.
With C=C1C(=O)O[C@@H]2C[C@@H](C)[C@@H]3[C@@H](OC4OC(COC(C)=O)C(O)C(O)C4O)CC(=O)[C@@]3(C)C[C@H]12 (stereo partly specified) the T/C (endpoint: mean survival time, dose: 35.0 mg/kg/injection, schedule: Q01DX009 (ip), vehicle: saline) was 108 % of control, the T/C (endpoint: mean survival time, dose: 50.0 mg/kg/injection, schedule: Q01DX009 (ip), vehicle: saline) was 95 % of control and the T/C (endpoint: mean survival time, dose: 75.0 mg/kg/injection, schedule: Q01DX009 (ip), vehicle: saline) was 102 % of control.
For CC[C@H](CC[C@@H](C)[C@H]1CC[C@H]2[C@@H]3CC=C4C[C@@H](O)CC[C@]4(C)[C@H]3CC[C@]12C)C(C)C, the T/C [12] was 89 % of control, the T/C [13] was 101 % of control and the T/C [14] was 95 % of control.
